Test results reported in PubChem BioAssay AID1745844 (Carcinogenic Potency Database (CPDB), 2022).
Where “and” joins values, the source holds several entries; their conditions need not be identical. Equal values may be shown once. Calls of active or inactive are those of the source. How the calls were made is not given here.

Test system: rodent lifetime carcinogenesis bioassay, tumor incidence TD50
Assay: chronic cancer bioassays in animals – CPDB, compiled studies (AID 1745844)
Conditions: in feed

Structure (SMILES): CCOc1ccc(NC(C)=O)cc1
- TD50 (mouse, strain B6C3F1, females, site: liver, lesion: hemangioma, dosed 96 weeks, study length 104 weeks): 29200 mg/kg/day (inactive)
- TD50 (mouse, strain B6C3F1, females, site: liver, lesion: hepatocellular carcinoma, dosed 96 weeks, study length 104 weeks): 47700 mg/kg/day (inactive)
- TD50 (mouse, strain B6C3F1, females, site: liver, lesion: hyperplastic nodule, dosed 96 weeks, study length 104 weeks): 14000 mg/kg/day (inactive)
- TD50 (mouse, strain B6C3F1, females, site: lung, lesion: adenocarcinoma, dosed 96 weeks, study length 104 weeks): 8830 mg/kg/day (inactive)
- TD50 (mouse, strain B6C3F1, females, site: lung, lesion: adenoma, dosed 96 weeks, study length 104 weeks): 6890 mg/kg/day (inactive)
- TD50 (mouse, strain B6C3F1, females, site: urinary bladder, lesion: papilloma, dosed 96 weeks, study length 104 weeks): 37000 mg/kg/day
- TD50 (mouse, strain B6C3F1, females, site: urinary bladder, lesion: transitional-cell carcinoma, dosed 96 weeks, study length 104 weeks): 37000 mg/kg/day
- TD50 (mouse, strain B6C3F1, males, site: kidney, lesion: renal-cell adenoma, dosed 96 weeks, study length 104 weeks): 1100 mg/kg/day
- TD50 (mouse, strain B6C3F1, males, site: kidney, lesion: renal-cell carcinoma, dosed 96 weeks, study length 104 weeks): 4020 mg/kg/day
- carcinogen call (mouse, strain B6C3F1, males, site: liver, lesion: hemangioma, dosed 96 weeks, study length 104 weeks): negative (inactive)
- TD50 (mouse, strain B6C3F1, males, site: liver, lesion: hepatocellular carcinoma, dosed 96 weeks, study length 104 weeks): 17100 mg/kg/day (inactive)
- carcinogen call (mouse, strain B6C3F1, males, site: liver, lesion: hyperplastic nodule, dosed 96 weeks, study length 104 weeks): negative (inactive)
- TD50 (mouse, strain B6C3F1, males, site: lung, lesion: adenocarcinoma, dosed 96 weeks, study length 104 weeks): 3800 mg/kg/day (inactive)
- TD50 (mouse, strain B6C3F1, males, site: lung, lesion: adenoma, dosed 96 weeks, study length 104 weeks): 5280 mg/kg/day (inactive)
- carcinogen call (mouse, strain C57BL/6, females, site: liver, lesion: one or several types, types not named, dosed 77 weeks, study length 77 weeks): negative (inactive)
- TD50 (mouse, strain C57BL/6, males, site: liver, lesion: hyperplastic nodule, dosed 77 weeks, study length 77 weeks): 12900 mg/kg/day (inactive)
- TD50 (rat, strain Sprague-Dawley, females, site: all sites, lesion: myeloid leukemia, dosed 78 weeks, study length 104 weeks): 2560 mg/kg/day (inactive)
- TD50 (rat, strain Sprague-Dawley, females, site: any site (literature study), lesion: several types, types named in the paper, dosed 78 weeks, study length 104 weeks): 1210 mg/kg/day
- TD50 (rat, strain Sprague-Dawley, females, site: ear duct, lesion: squamous-cell carcinoma, dosed 110 weeks, study length 110 weeks): 1430 mg/kg/day
- TD50 (rat, strain Sprague-Dawley, females, site: mammary gland, lesion: adenocarcinoma, dosed 110 weeks, study length 110 weeks): 1380 mg/kg/day
- TD50 (rat, strain Sprague-Dawley, females, site: nasal cavity, lesion: adenocarcinoma, dosed 78 weeks, study length 104 weeks): 7730 mg/kg/day
- TD50 (rat, strain Sprague-Dawley, females, site: nasal cavity, lesion: squamous-cell carcinoma, dosed 78 weeks, study length 104 weeks): 48000 mg/kg/day
- TD50 (rat, strain Sprague-Dawley, females, site: nasal cavity, lesion: transitional-cell carcinoma, dosed 78 weeks, study length 104 weeks): 23800 mg/kg/day
- TD50 (rat, strain Sprague-Dawley, females, site: several sites, sites named in the paper, lesion: several types, types named in the paper, dosed 78 weeks, study length 104 weeks): 2730 mg/kg/day
- TD50 (rat, strain Sprague-Dawley, females, site: urinary bladder, lesion: papilloma, dosed 78 weeks, study length 104 weeks): 23800 mg/kg/day
- TD50 (rat, strain Sprague-Dawley, females, site: urinary bladder, lesion: transitional-cell carcinoma, dosed 78 weeks, study length 104 weeks): 11700 mg/kg/day
- TD50 (rat, strain Sprague-Dawley, males, site: all sites, lesion: myeloid leukemia, dosed 78 weeks, study length 104 weeks): 2380 mg/kg/day (inactive)
- TD50 (rat, strain Sprague-Dawley, males, site: any site (literature study), lesion: several types, types named in the paper, dosed 78 weeks, study length 104 weeks): 631 mg/kg/day
- TD50 (rat, strain Sprague-Dawley, males, site: forestomach, lesion: squamous-cell papilloma, dosed 117 weeks, study length 117 weeks): 2690 mg/kg/day
- TD50 (rat, strain Sprague-Dawley, males, site: kidney cortex, lesion: renal-cell tumor, dosed 117 weeks, study length 117 weeks): 1300 mg/kg/day
- TD50 (rat, strain Sprague-Dawley, males, site: kidney/pelvis, lesion: one or several types, types not named, dosed 117 weeks, study length 117 weeks): 5470 mg/kg/day
- TD50 (rat, strain Sprague-Dawley, males, site: kidney/pelvis, lesion: renal-cell carcinoma, dosed 78 weeks, study length 104 weeks): 38300 mg/kg/day
- TD50 (rat, strain Sprague-Dawley, males, site: liver, lesion: hemangioma, dosed 117 weeks, study length 117 weeks): 5470 mg/kg/day
- TD50 (rat, strain Sprague-Dawley, males, site: nasal cavity, lesion: adenocarcinoma, dosed 78 weeks, study length 104 weeks): 2380 mg/kg/day
- TD50 (rat, strain Sprague-Dawley, males, site: nasal cavity, lesion: squamous-cell carcinoma, dosed 78 weeks, study length 104 weeks): 7530 mg/kg/day
- TD50 (rat, strain Sprague-Dawley, males, site: nasal cavity, lesion: transitional-cell carcinoma, dosed 78 weeks, study length 104 weeks): 4050 mg/kg/day
- TD50 (rat, strain Sprague-Dawley, males, site: several sites, sites named in the paper, lesion: several types, types named in the paper, dosed 78 weeks, study length 104 weeks): 741 mg/kg/day
- TD50 (rat, strain Sprague-Dawley, males, site: urinary bladder, lesion: one or several types, types not named, dosed 117 weeks, study length 117 weeks): 1640 mg/kg/day
- TD50 (rat, strain Sprague-Dawley, males, site: urinary bladder, lesion: transitional-cell carcinoma, dosed 78 weeks, study length 104 weeks): 2710 mg/kg/day
- carcinogen call (rat, strain Wistar, females, site: urinary tract, lesion: one or several types, types not named, dosed 69 weeks, study length 69 weeks): negative (inactive)

Structure (SMILES): Cc1nc(N)cc2[nH]c3ccccc3c12
- TD50 (mouse, strain CDF1, females, site: liver, lesion: hepatocellular carcinoma, dosed 88 weeks, study length 88 weeks): 6.81 mg/kg/day
- TD50 (mouse, strain CDF1, males, site: liver, lesion: hepatocellular carcinoma, dosed 88 weeks, study length 88 weeks): 88.2 mg/kg/day
- TD50 (mouse, strain CDF1, males, site: liver, lesion: several types, types named in the paper, dosed 88 weeks, study length 88 weeks): 83.2 mg/kg/day
- TD50 (mouse, strain CDF1, males, site: lung, lesion: adenocarcinoma, dosed 88 weeks, study length 88 weeks): 81.1 mg/kg/day
- TD50 (mouse, strain CDF1, males, site: lung, lesion: adenoma, dosed 88 weeks, study length 88 weeks): 224 mg/kg/day
- TD50 (rat, strain ACI, females, site: ileum, lesion: adenoma, dosed 124 weeks, study length 124 weeks): 41.4 mg/kg/day
- TD50 (rat, strain ACI, females, site: jejunum, lesion: adenocarcinoma, dosed 124 weeks, study length 124 weeks): 41.4 mg/kg/day
- TD50 (rat, strain ACI, females, site: liver, lesion: hemangioendothelial sarcoma, dosed 124 weeks, study length 124 weeks): 41.4 mg/kg/day
- TD50 (rat, strain ACI, females, site: liver, lesion: neoplastic nodule, dosed 124 weeks, study length 124 weeks): 4.43 mg/kg/day
- TD50 (rat, strain ACI, females, site: liver, lesion: several types, types named in the paper, dosed 124 weeks, study length 124 weeks): 4.43 mg/kg/day
- TD50 (rat, strain F344/DuCrj, females, site: all sites, lesion: malignant lymphoma, dosed 112 weeks, study length 112 weeks): 29 mg/kg/day
- TD50 (rat, strain F344/DuCrj, females, site: clitoral gland, lesion: adenocarcinoma, dosed 112 weeks, study length 112 weeks): 75.5 mg/kg/day
- TD50 (rat, strain F344/DuCrj, females, site: clitoral gland, lesion: adenoma, dosed 112 weeks, study length 112 weeks): 12.8 mg/kg/day
- TD50 (rat, strain F344/DuCrj, females, site: clitoral gland, lesion: several types, types named in the paper, dosed 112 weeks, study length 112 weeks): 9.42 mg/kg/day
- TD50 (rat, strain F344/DuCrj, females, site: liver, lesion: hepatocellular adenoma, dosed 112 weeks, study length 112 weeks): 74.3 mg/kg/day
- TD50 (rat, strain F344/DuCrj, females, site: mammary gland, lesion: adenoma, dosed 112 weeks, study length 112 weeks): 76.2 mg/kg/day
- TD50 (rat, strain F344/DuCrj, females, site: mammary gland, lesion: several types, types named in the paper, dosed 112 weeks, study length 112 weeks): 9.78 mg/kg/day and 11.5 mg/kg/day
- TD50 (rat, strain F344/DuCrj, females, site: uterus, lesion: endometrial stromal polyp, dosed 112 weeks, study length 112 weeks): 3.6 mg/kg/day
- TD50 (rat, strain F344/DuCrj, males, site: liver, lesion: hepatocellular adenoma, dosed 112 weeks, study length 112 weeks): 10.7 mg/kg/day
- TD50 (rat, strain F344/DuCrj, males, site: mammary gland, lesion: several types, types named in the paper, dosed 112 weeks, study length 112 weeks): 8.43 mg/kg/day
- TD50 (rat, strain F344/DuCrj, males, site: urinary bladder, lesion: several types, types named in the paper, dosed 112 weeks, study length 112 weeks): 9.72 mg/kg/day
- TD50 (rat, strain F344/DuCrj, males, site: urinary bladder, lesion: transitional-cell carcinoma, dosed 112 weeks, study length 112 weeks): 59.9 mg/kg/day
- TD50 (rat, strain F344/DuCrj, males, site: urinary bladder, lesion: transitional-cell papilloma, dosed 112 weeks, study length 112 weeks): 12.3 mg/kg/day

Structure (SMILES): C[C@@H]1C[C@H](C)CN(S(=O)(=O)c2ccc(Cl)c(C(=O)O)c2)C1
- TD50 (rat, strain Fischer 344, males, site: liver, lesion: hepatocellular carcinoma, dosed 70 weeks, study length 71 weeks): 4.85 mg/kg/day

Structure (SMILES): C[C@@H]1CCC[C@H](C)N1CCCC(O)(c1ccccc1)c1ccccn1 (stereo partly specified)
- TD50 (mouse, strain B6C3F1, females, site: all sites, lesion: lymphoma, dosed 104 weeks, study length 104 weeks): 94.6 mg/kg/day (inactive)
- carcinogen call (mouse, strain B6C3F1, females, site: any site (literature study), lesion: several types, types named in the paper, dosed 104 weeks, study length 104 weeks): negative (inactive)
- TD50 (mouse, strain B6C3F1, females, site: liver, lesion: hepatocellular adenoma, dosed 104 weeks, study length 104 weeks): 1560 mg/kg/day (inactive)
- TD50 (mouse, strain B6C3F1, females, site: liver, lesion: hepatocellular carcinoma, dosed 104 weeks, study length 104 weeks): 978 mg/kg/day (inactive)
- TD50 (mouse, strain B6C3F1, females, site: lung, lesion: adenoma, dosed 104 weeks, study length 104 weeks): 1980 mg/kg/day (inactive)
- carcinogen call (mouse, strain B6C3F1, females, site: lung, lesion: carcinoma, dosed 104 weeks, study length 104 weeks): negative (inactive)
- carcinogen call (mouse, strain B6C3F1, males, site: any site (literature study), lesion: several types, types named in the paper, dosed 104 weeks, study length 104 weeks): negative (inactive)
- carcinogen call (mouse, strain B6C3F1, males, site: liver, lesion: hepatocellular adenoma, dosed 104 weeks, study length 104 weeks): negative (inactive)
- carcinogen call (mouse, strain B6C3F1, males, site: liver, lesion: hepatocellular carcinoma, dosed 104 weeks, study length 104 weeks): negative (inactive)
- TD50 (mouse, strain B6C3F1, males, site: lung, lesion: adenoma, dosed 104 weeks, study length 104 weeks): 947 mg/kg/day (inactive)
- TD50 (mouse, strain B6C3F1, males, site: lung, lesion: carcinoma, dosed 104 weeks, study length 104 weeks): 4040 mg/kg/day (inactive)
- TD50 (rat, strain Wistar, females, site: any site (literature study), lesion: several types, types named in the paper, dosed 104 weeks, study length 104 weeks): 440 mg/kg/day (inactive)
- carcinogen call (rat, strain Wistar, females, site: liver, lesion: one or several types, types not named, dosed 104 weeks, study length 104 weeks): negative (inactive)
- TD50 (rat, strain Wistar, females, site: pituitary gland, lesion: adenoma, dosed 104 weeks, study length 104 weeks): 15.9 mg/kg/day (inactive)
- TD50 (rat, strain Wistar, males, site: adrenal gland, lesion: cortical adenoma, dosed 104 weeks, study length 104 weeks): 104 mg/kg/day (inactive)
- carcinogen call (rat, strain Wistar, males, site: any site (literature study), lesion: several types, types named in the paper, dosed 104 weeks, study length 104 weeks): negative (inactive)
- carcinogen call (rat, strain Wistar, males, site: liver, lesion: one or several types, types not named, dosed 104 weeks, study length 104 weeks): negative (inactive)
